33 compounds from ChEMBL document CHEMBL1152303, “Synthesis and biological evaluation of a series of liver-selective phosphonic acid thyroid hormone receptor agonists and their prodrugs” (J Med Chem, 2008) can be followed below.

The structures appear in SMILES notation.

Data set [1] concerns Rattus norvegicus. In words: Agonist activity at thyroid hormone receptor in Sprague-Dawley rat assessed as heart mGPDH activity at 1 mg/kg administered through osmotic pump infusion per ug protein. In kind it is functional.
The test system of data set [2] is Rattus norvegicus. In words: Agonist activity at thyroid hormone receptor in Sprague-Dawley rat assessed as liver mGPDH activity at 1 mg/kg administered through osmotic pump infusion per ug protein. The data set is classed as functional.
The target of data set [3] is T1, Thyroid hormone receptor alpha (Homo sapiens, UniProt P10827).
T1 sequence (P10827 whole entry): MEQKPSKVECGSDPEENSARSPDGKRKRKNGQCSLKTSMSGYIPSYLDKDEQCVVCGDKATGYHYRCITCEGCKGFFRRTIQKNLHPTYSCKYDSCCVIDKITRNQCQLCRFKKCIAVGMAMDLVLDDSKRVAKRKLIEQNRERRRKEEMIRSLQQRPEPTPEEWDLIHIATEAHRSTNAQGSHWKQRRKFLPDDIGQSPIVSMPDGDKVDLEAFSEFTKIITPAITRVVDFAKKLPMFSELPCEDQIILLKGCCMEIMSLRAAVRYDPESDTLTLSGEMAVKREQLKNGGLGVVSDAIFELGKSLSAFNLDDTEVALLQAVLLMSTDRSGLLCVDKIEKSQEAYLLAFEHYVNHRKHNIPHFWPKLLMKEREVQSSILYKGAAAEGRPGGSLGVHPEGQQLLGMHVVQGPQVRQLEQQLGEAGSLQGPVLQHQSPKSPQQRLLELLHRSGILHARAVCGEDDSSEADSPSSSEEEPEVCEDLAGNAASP
Description: Displacement of [125I]3,5,3'-triiodo-L-thyronine from His-tagged human recombinant TRalpha1 by scintillation proximity assay

In data set [4] the test system is Rattus norvegicus. In words: Reduction in total plasma cholesterol level in cholesterol-fed Sprague-Dawley rat at 0.2 mg/kg, ip after 24 hrs. In kind it is functional. More on the design: scale not given: the % may be the effect or the level left. The note with it: route intraperitoneal.
In data set [5] the target is T2, Thyroid hormone receptor beta (Homo sapiens, UniProt P10828).
T2 sequence (P10828 whole entry): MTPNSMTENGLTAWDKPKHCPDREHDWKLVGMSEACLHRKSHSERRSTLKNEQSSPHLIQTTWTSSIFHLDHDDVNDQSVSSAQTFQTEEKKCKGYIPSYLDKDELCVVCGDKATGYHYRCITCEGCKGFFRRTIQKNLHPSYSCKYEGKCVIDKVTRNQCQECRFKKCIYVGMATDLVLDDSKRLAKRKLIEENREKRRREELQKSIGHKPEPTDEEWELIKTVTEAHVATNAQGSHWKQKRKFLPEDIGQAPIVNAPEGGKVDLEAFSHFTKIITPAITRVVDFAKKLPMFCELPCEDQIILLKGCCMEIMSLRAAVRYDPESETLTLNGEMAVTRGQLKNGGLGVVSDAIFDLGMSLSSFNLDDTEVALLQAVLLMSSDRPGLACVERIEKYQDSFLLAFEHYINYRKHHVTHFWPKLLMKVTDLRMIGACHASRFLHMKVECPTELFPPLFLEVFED
Description: Displacement of [125I]3,5,3'-triiodo-L-thyronine His-tagged human recombinant TRbeta1 by scintillation proximity assay

The subject of data set [6] is Rattus norvegicus. In words: Reduction in total plasma cholesterol level in cholesterol-fed Sprague-Dawley rat at 0.5 mg/kg, po after 24 hrs. In kind it is functional. Further details: scale not given: the % may be the effect or the level left.
Data set [7] in a line: Metabolic stability in human S9 liver fraction assessed as prodrug remaining at 100 uM after 1 hr. The data set is classed as ADME, subcellular. The note with it: s9, 1 h.
Data set [8] in a line: Metabolic stability in human liver S9 fraction assessed as activation rate at 100 uM after 1 hr. The data set is classed as ADME, subcellular. The note with it: s9, 1 h.
The subject of data set [9] is Rattus norvegicus. In words: Reduction in total plasma cholesterol level in cholesterol-fed orally dosed Sprague-Dawley rat after 24 hrs relative to control. The data set is classed as functional. Further details: scale not given: the % may be the effect or the level left.
The test system of data set [10] is Rattus norvegicus. In words: Reduction in total plasma cholesterol level in cholesterol-fed orally dosed Sprague-Dawley rat after 24 hrs. The data set is classed as functional. The note with it: po.
A short description of data set [11]: Metabolic stability in human S9 liver fraction assessed as monoacid levels at 100 uM after 1 hr. The note with it: s9, 1 h. The data set is classed as ADME, subcellular.

For the compound `N[C@@H](Cc1cc(I)c(Oc2ccc(O)c(I)c2)c(I)c1)C(=O)O` [LIOTHYRONINE], the Activity with Rattus norvegicus [1] came to 4.18 U/min; in the data set on Rattus norvegicus [2], 7.52 U/min.
Regarding `Cc1cc(NCP(=O)(O)O)cc(C)c1Cc1ccc(O)c(C(C)C)c1`, the figures for the inhibitory constant (Ki) in data set [3] and in data set [5] were 28.4 nM and 9.1 nM, respectively. The same compound yielded an Activity in the data set on Rattus norvegicus [4] of 32.3%.
On to `Cc1cc(OC[P@@]2(=O)OCC[C@@H](c3cc(Cl)cc(Cl)c3)O2)cc(C)c1Cc1ccc(O)c(C(C)C)c1` (relative stereo), for which the Activity with Rattus norvegicus [6] worked out at 29%.
In turn, `CCOC(=O)C(C)(C)NP(=O)(COc1cc(C)c(Cc2ccc(O)c(C(C)C)c2)c(C)c1)NC(C)(C)C(=O)OCC` gave an Activity in the data set on Rattus norvegicus [6] of 23%.
For the compound `CC(C)c1cc(Oc2c(Br)cc(CP(=O)(O)O)cc2Br)ccc1O`, the Ki in data set [3] amounted to 235 nM; in [5] it was 15.5 nM.
`Cc1cc(OC[P@@]2(=O)OCC[C@@H](c3cccnc3)O2)cc(C)c1Cc1ccc(O)c(C(C)C)c1` (relative stereo) gave an Activity with Rattus norvegicus [6] of 39%.
For the compound `Cc1cc(OCP(=O)(OCOC(=O)C(C)(C)C)OCOC(=O)C(C)(C)C)cc(C)c1Cc1ccc(O)c(C(C)C)c1`, the results for the Stability in data set [7], in data set [8] and in data set [11] were 11%, 134 pmol/min/mg and 79%, respectively. The Activity in the data set with Rattus norvegicus [9] was 46%; in the data set with Rattus norvegicus [6], 33%. In the data set with Rattus norvegicus [10], this compound showed an ED50 of 0.7 mg/kg.
Compound `CCC(C)c1cc(Cc2c(C)cc(OCP(=O)(O)O)cc2C)ccc1O` (stereo not drawn) came in with an inhibition constant (Ki) in [3] of 30.5 nM. The Activity with Rattus norvegicus [4] stood at 20.1%.
Regarding `CC(C)c1cc(Oc2c(Cl)cc(NCP(=O)(O)O)cc2Cl)ccc1O`, the Ki in data set [5] was found to be 30.5 nM.
In the data set with Rattus norvegicus [6], `CC(=O)SCCOP(=O)(COc1cc(C)c(Cc2ccc(O)c(C(C)C)c2)c(C)c1)OCCSC(C)=O` returned an Activity of 20%.
The same measure, in the same setting: next, `CCOC(=O)[C@H](Cc1ccccc1)NP(=O)(COc1cc(C)c(Cc2ccc(O)c(C(C)C)c2)c(C)c1)N[C@@H](Cc1ccccc1)C(=O)OCC`: 0%.
Regarding `CC(C)c1cc(Oc2c(Br)cc(NCP(=O)(O)O)cc2Br)ccc1O`, in the data set on Rattus norvegicus [4], the Activity came out at 47.7%.
In the case of `Cc1cc(OCC(=O)O)cc(C)c1Cc1ccc(O)c(C(C)C)c1` [SOBETIROME], the Activity in the data set on Rattus norvegicus [1] stood at 4.08 U/min; in the data set on Rattus norvegicus [2] it was 7.88 U/min.
As for `CC(C)c1cc(Oc2c(Br)cc(CCP(=O)(O)O)cc2Br)ccc1O`, the Ki is 42.1 nM in data set [3] and 2.5 nM in [5]. The Activity in the data set with Rattus norvegicus [4] is 34.5%.
Regarding `CC(C)c1cc(Oc2c(I)cc(OCP(=O)(O)O)cc2I)ccc1O`, in the data set with Rattus norvegicus [4], the Activity worked out at 44.7%.
Turning to `Cc1cc(OC[P@@]2(=O)OCC[C@@H](c3cccc(Br)c3)O2)cc(C)c1Cc1ccc(O)c(C(C)C)c1` (relative stereo), the Activity in the data set on Rattus norvegicus [6] turned out to be 0%.
The same measure, in the same setting: in the case of `Cc1cc(OCP(=O)(OCOC(=O)OC(C)C)OCOC(=O)OC(C)C)cc(C)c1Cc1ccc(O)c(C(C)C)c1` it was 24%.
Same read-out and setting: in the case of `CCOC(=O)OCOP(=O)(COc1cc(C)c(Cc2ccc(O)c(C(C)C)c2)c(C)c1)OCOC(=O)OCC` it was 24%.
`Cc1cc(OCP(=O)(O)O)cc(C)c1Cc1ccc(O)c(C(C)C)c1` [MB07344]: the Activity is given as 37.2% in the data set with Rattus norvegicus [4], 1.66 U/min with Rattus norvegicus [1] and 7.37 U/min with Rattus norvegicus [2]. This compound gave an inhibition constant (Ki) in data set [5] of 2.95 nM.
`Cc1cc(OC[P@@]2(=O)OCC[C@@H](c3cccc(F)c3)O2)cc(C)c1Cc1ccc(O)c(C(C)C)c1` (relative stereo) had an Activity in the data set with Rattus norvegicus [6] of 46%.
On to `CCOC(=O)CNP(=O)(COc1cc(C)c(Cc2ccc(O)c(C(C)C)c2)c(C)c1)NCC(=O)OCC`, for which the Stability in data set [7] turned out to be 70%; in data set [8] it was 73 pmol/min/mg; in data set [11] it was 6%. For the same compound, the Activity came to 48% in the data set on Rattus norvegicus [9] and 42% in the data set on Rattus norvegicus [6]. The same compound gave an ED50 with Rattus norvegicus [10] of 0.1 mg/kg.
In the data set on Rattus norvegicus [4], `CC(C)c1cc(Oc2c(I)cc(CP(=O)(O)O)cc2I)ccc1O` yielded an Activity of 39.4%.
Take `Cc1cc(OC[P@@]2(=O)OCC[C@@H](c3ccc(Cl)cc3)O2)cc(C)c1Cc1ccc(O)c(C(C)C)c1`: in the data set with Rattus norvegicus [6], the Activity amounted to 28%.
In the case of `O=C(O)Cc1cc(I)c(Oc2ccc(O)c(I)c2)c(I)c1` [TIRATRICOL], the Activity stood at 3.68 U/min in the data set on Rattus norvegicus [1] and 7.1 U/min in the data set with Rattus norvegicus [2].
In turn, `CCc1cc(Cc2c(C)cc(OCP(=O)(O)O)cc2C)ccc1O` returned an Activity with Rattus norvegicus [4] of 7.5%.
On to `O=P(O)(O)Cc1cc(I)c(Oc2ccc(O)c(I)c2)c(I)c1`, for which the Activity is given as 1.74 U/min in the data set on Rattus norvegicus [1] and 5.38 U/min in the data set on Rattus norvegicus [2].
As to `Cc1cc(NC(=O)C(=O)O)cc(C)c1Oc1ccc(O)c(C(C)C)c1`, the Ki in [3] amounted to 0.51 nM; in data set [5], 0.47 nM.
In the data set with Rattus norvegicus [4], `CC(C)c1cc(Oc2c(Br)cc(OCP(=O)(O)O)cc2Br)ccc1O` returned an Activity of 42.6%.
In data set [3], `COc1cc(OCP(=O)(O)O)cc(OC)c1Cc1ccc(O)c(C(C)C)c1` displayed an inhibition constant Ki of 3300 nM.
In the data set with Rattus norvegicus [6], `Cc1cc(OC[P@@]2(=O)OCC[C@@H](c3ccncc3)O2)cc(C)c1Cc1ccc(O)c(C(C)C)c1` (relative stereo) showed an Activity of 29%.
Consider `Cc1cc(OCP(=O)(O)O)cc(C)c1Oc1ccc(O)c(C(C)C)c1`, for which the Ki was 183 nM in [3] and 25.4 nM in [5].
`CCOC(=O)[C@H](C)NP(=O)(COc1cc(C)c(Cc2ccc(O)c(C(C)C)c2)c(C)c1)N[C@@H](C)C(=O)OCC` returned an Activity with Rattus norvegicus [6] of 42%.
The same measure, in the same setting: in the case of `CCOC(=O)[C@@H](NP(=O)(COc1cc(C)c(Cc2ccc(O)c(C(C)C)c2)c(C)c1)N[C@H](C(=O)OCC)C(C)C)C(C)C` it was 13%.

Broadly, the Ki is the equilibrium dissociation constant of an inhibitor or competing ligand from its target. The term ED50 denotes the midpoint of the dose-response relation.
